{
  "source": "patent US20230348358A1",
  "about": "“Serotonin Receptor Modulators” (Northeastern University, priority 2020, published 2023)",
  "key": {"[1]": {"biological_target": "T1, 5HT2B receptors (Homo sapiens, UniProt P41595)", "T1 construct": "host or cells: HEK293, transient", "T1 sequence (P41595 whole entry)": "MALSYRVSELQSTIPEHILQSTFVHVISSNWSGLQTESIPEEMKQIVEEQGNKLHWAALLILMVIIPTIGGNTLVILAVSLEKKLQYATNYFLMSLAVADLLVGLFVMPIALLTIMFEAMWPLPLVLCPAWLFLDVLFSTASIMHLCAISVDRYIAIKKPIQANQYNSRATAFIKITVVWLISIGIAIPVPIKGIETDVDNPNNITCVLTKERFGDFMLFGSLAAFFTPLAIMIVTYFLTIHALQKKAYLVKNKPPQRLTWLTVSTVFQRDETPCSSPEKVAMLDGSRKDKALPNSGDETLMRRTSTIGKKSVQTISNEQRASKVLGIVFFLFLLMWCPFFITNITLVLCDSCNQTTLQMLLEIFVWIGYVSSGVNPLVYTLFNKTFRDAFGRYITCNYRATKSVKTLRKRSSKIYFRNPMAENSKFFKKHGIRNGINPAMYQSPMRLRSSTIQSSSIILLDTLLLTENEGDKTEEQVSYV", "test": "Affinity at 5HT2B receptors", "assay_type": "binding"}, "[2]": {"biological_target": "T2, 5HT2C receptors (Homo sapiens, UniProt P28335)", "T2 construct": "host or cells: HEK293, transient", "T2 sequence (P28335 33-458)": "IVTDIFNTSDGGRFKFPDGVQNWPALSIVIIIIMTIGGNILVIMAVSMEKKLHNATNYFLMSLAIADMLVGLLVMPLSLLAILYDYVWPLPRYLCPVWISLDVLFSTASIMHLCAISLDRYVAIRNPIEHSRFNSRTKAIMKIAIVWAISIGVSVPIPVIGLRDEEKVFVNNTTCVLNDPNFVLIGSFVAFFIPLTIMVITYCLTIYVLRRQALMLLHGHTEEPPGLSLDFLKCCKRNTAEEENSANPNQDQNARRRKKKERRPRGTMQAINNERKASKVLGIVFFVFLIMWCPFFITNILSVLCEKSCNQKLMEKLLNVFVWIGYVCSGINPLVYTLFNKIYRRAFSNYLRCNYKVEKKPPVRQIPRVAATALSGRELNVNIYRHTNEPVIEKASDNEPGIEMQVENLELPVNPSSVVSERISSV", "test": "5HT2C functional assay", "assay_type": "cell-based", "conditions": "read-out: EC50 at 5HT2C receptors (agonist)"}, "[3]": {"tested_on": "C57BI/6J mice", "test": "d-Amphetamine (AMP)-elicited hyperlocomotion", "assay_type": "in vivo, mouse", "conditions": "5.6 mg/kg; listed as (2S)-5-FPT, HCl"}, "[4]": {"tested_on": "C57BI/6J mice", "test": "Social interactions between littermates", "assay_type": "in vivo, mouse", "conditions": "5.6 mg/kg", "description": "After behavioral testing was complete, blind scorers categorized mice into two groups based on number of rears and initiated social interactions, and the two groups differentiated vehicle from (2S)-5-FPT-treated mice with 100% accuracy."}, "[5]": {"tested_on": "BL/6J mice", "test": "Serotonin syndrome-like behavior observation", "assay_type": "in vivo, mouse"}, "[6]": {"biological_target": "5HT7 (Homo sapiens, UniProt P34969)", "sequence (P34969 whole entry)": "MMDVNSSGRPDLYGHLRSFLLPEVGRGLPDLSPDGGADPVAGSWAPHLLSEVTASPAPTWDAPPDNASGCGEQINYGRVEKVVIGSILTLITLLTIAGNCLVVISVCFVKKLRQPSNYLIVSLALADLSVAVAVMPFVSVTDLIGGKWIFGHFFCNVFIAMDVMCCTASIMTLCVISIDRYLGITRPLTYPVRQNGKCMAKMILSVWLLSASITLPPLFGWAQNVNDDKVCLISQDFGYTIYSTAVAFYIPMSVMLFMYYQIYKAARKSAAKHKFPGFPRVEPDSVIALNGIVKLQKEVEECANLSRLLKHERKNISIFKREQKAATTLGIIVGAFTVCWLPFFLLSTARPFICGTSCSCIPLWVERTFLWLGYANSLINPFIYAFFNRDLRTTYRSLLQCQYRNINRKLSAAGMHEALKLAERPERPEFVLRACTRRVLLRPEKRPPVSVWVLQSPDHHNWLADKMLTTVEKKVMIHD", "test": "5HT7 function, Gs-cAMP signaling (HEK293 cells)", "assay_type": "cell-based", "parameters": "ATCC CRL-1573 (cells)", "conditions": "for Function at 5HT7: cAMP signaling, HCl", "description": "It is certain that the C(5) substituent impacts function. […] In FIG. 3, results of measured (S)-5-PAT scaffold yields with various function as 5HT7 ligands are compared with AS-19 and clozapine."}},
  "note": "pEC50, pKi: −log10 of the molar value. “Also recorded” adds a separate entry of the source.",
  "data": [
    {"smiles": "CN(C)[C@H]1CCc2c(cccc2-c2ccccc2F)C1.Cl", "note": "[(S)-5-FPT, (2S)-5-(2-fluorophenyl)-N,N-dimethyl-1,2,3,4-tetrahydronaphthalen-2-amine HCl]", "values": [
      {"measurement": "pKi", "setting": "[1]", "result": 7.22},
      {"measurement": "pEC50", "setting": "[2]", "result": 6.64},
      {"measurement": "Hyperlocomotion caused by AMP", "setting": "[3]", "result": "did not reduce hyperlocomotion caused by AMP; also recorded: did not significantly decrease hyperlocomotion elicited by amphetamine"},
      {"measurement": "Grooming", "setting": "[4]", "result": "decreasing grooming"},
      {"measurement": "Number of initiated social interactions", "setting": "[4]; listed as (2S)-5-FPT, HCl", "result": "significantly increases the number of initiated social interactions"},
      {"measurement": "Flat Body", "setting": "[5]; 5.6 mg/kg, mean (SEM) number of six one-minute sessions with the behavior (score/6)", "result": "0(0)"},
      {"measurement": "Forepaw Tread", "setting": "[5]; 5.6 mg/kg, mean (SEM) score/6", "result": "0(0)"},
      {"measurement": "Head Weave", "setting": "[5]; 5.6 mg/kg, mean (SEM) score/6", "result": "0(0)"},
      {"measurement": "Moon Walk", "setting": "[5]; 5.6 mg/kg, mean (SEM) score/6", "result": "0.3(0.2)"},
      {"measurement": "Piloerection", "setting": "[5]; 5.6 mg/kg, mean (SEM) score/6", "result": "0(0)"},
      {"measurement": "Straub Tail", "setting": "[5]; 5.6 mg/kg, mean (SEM) score/6", "result": "0(0)"},
      {"measurement": "Tremor", "setting": "[5]; 5.6 mg/kg, mean (SEM) score/6", "result": "0(0)"},
      {"measurement": "Serotonin syndrome", "setting": "[5]; mouse, in vivo, listed as (2S)-5-FPT, HCl", "result": "did not result in symptoms of serotonin syndrome; also recorded: does not produce serotonin syndrome-like symptoms"},
      {"measurement": "pEC50", "setting": "[6]", "result": 7.47},
      {"measurement": "EMAX vs AS-19, 5-HT7 Gs-cAMP signaling", "setting": "[6]", "result": 33, "unit": "%"},
      {"measurement": "Function at 5HT7", "setting": "[6]", "result": "Partial agonist"},
      {"measurement": "Function at 5HT7", "setting": "[6]; listed as (2S)—S-FPT", "result": "partial agonist"}
    ]}
  ]
}
